Test [1] deals with recombinant NCPs. Briefly: Streptavidin pull-down of recombinant nucleosomes with biotinylated Gag CBS peptides. Format: binding, human. Particulars: 2 h at 4°C; for pull-down of nucleosomes: 75–150 mM NaCl, 1.5 μg biotinylated peptide, 3 μg NCP, Coomassie gel. An excerpt:
Recombinant nucleosome core particles (NCPs) (mono-nucleosomes) were assembled as previously described. Briefly, individual human histones H2A, H2B, H3, and H4 were purchased (The Histone Source; Colorado State University) and octamers were assembled by dialysis. The Widom-601 DNA [25] was generated by restriction enzyme digestion of a concatenated construct and purified by anion exchange chromatography onto a POROS-HQ column. NCPs were assembled with a ratio 1.1:1 (1.1 octamer:1 DNA) by successive steps of salt dialysis against TEN buffer (0–2 M NaCl, 10 mM Tris, pH 7.5, 1 mM ethylenediaminetetraacetic acid, 1 mM Dithiothreitol (DTT)). NCPs were kept at −80°C in 0 mM NaCl TEN buffer.
Twenty microliters of streptavidin beads (Dynabeads™ MyOne™ Streptavidin T1; Invitrogen; Thermo Fisher Scientific) were used per condition. StreptaBeads were washed twice with pull-down buffer (20 mM Tris–HCl, pH 7.5, 0.1% NP-40, 10% glycerol, 75–150 mM NaCl, 0.5 mM DTT, and 1 mM Phenylmethylsulfonyl fluoride (PMSF)) containing 75 mM of NaCl and 100 μg of bovine serum albumin (BSA), followed by one wash in the same conditions, without BSA. 1.5 μg of Gag CBS (chromatin binding site) biotinylated peptide and 3 μg of recombinant NCPs were added per condition, in a final volume of 800 μl of pull-down buffer with corresponding NaCl concentrations. The reaction mix was incubated for 2 h on a rotation wheel, at 4°C. Beads were washed three times with the corresponding NaCl concentration buffer, and bound proteins were eluted by the addition of 10 μl of SDS Sample Buffer 2.5×. Samples were separated by sodium dodecyl sulfate–polyacrylamide gel electrophoresis, and analyzed after colloidal Coomassie blue staining.

Test [2] has as its system NCP saturated with H4 tails (H2A–H2B acidic patch). Briefly: BLI competition: immobilized Gag CBS peptides versus NCP saturated with H4 tails. Format: binding, human. Particulars: mean of two experiments; for binding to NCP saturated with WT H4 tail: 100 nM NCP pre-incubated with 100 μM H4 WT peptide at least 30 min at room temperature. The protocol: Quantitative interaction experiments were performed by biolayer interferometry (BLI), using a BLItz instrument (Octet® N1; Sartorius). Two different runs were performed: the first one, into water, to coat biosensors with biotinylated peptides (Table 1) and the second, into Blitz buffer [1× phosphate buffer saline, pH 7.4, 0.02% (v/v) Tween 20, 0.1% (w/v) BSA], to fix NCPs on immobilized peptides. All steps were performed under 2200 rpm shaking speed. Streptavidin biosensors (Octet®SA Biosensors; Reference 18-0009; Sartorius) were first pre-wet for at least 10 min with water. The baseline, with only water, was measured for 60 s. Ten micromolar Gag CBS biotinylated peptides (or H4 biotinylated peptides), diluted in water, were loaded onto the biosensors, for 180 s, to reach a binding of ∼1.5 nm, followed by a dissociation step of 180 s. Following the first run, coated biosensors were equilibrated for at least 10 min in Blitz buffer. The second run started with 60 s of baseline, followed by the association step, where biosensors were dipped into serial dilutions of NCPs (10, 25, 50, or 100 nM), for 300 s. Finally, the dissociation step was performed in Blitz buffer, for 300 s. For competition experiments, the second run started with 60 s of baseline in Blitz buffer, followed by 300 s of association step. During this step, solutions of 100 nM of NCPs were pre-incubated with or without 100 μM of H4 peptide [wild type (WT) or mutant, non-biotinylated], in Blitz buffer, for at least 30 min at room temperature. Finally, the dissociation step was performed in Blitz buffer, for 180 s. Nonspecific binding controls were performed, such as binding of 100 nM of NCPs on biosensors without biotinylated peptides loaded, as well as binding of Blitz buffer on loaded biosensors. For each time point measured, data of this second control (binding of Blitz buffer on biosensors loaded with biotinylated Gag WT peptide) were subtracted to every condition and were plotted on curves, using Prism 9 software.

In test [3] the test system is recombinant NCPs. Briefly: BLI of immobilized biotinylated peptides with recombinant NCP. The test is classed as binding, human. Particulars: for BLI interaction with nucleosomes: peptide on streptavidin biosensor, NCP 10, 25, 50 or 100 nM, 1× PBS pH 7.4, 0.02% Tween 20, 0.1% BSA, representative of three experiments.
Text: Recombinant nucleosome core particles (NCPs) (mono-nucleosomes) were assembled as previously described [13]. Briefly, individual human histones H2A, H2B, H3, and H4 were purchased (The Histone Source; Colorado State University) and octamers were assembled by dialysis. The Widom-601 DNA [25] was generated by restriction enzyme digestion of a concatenated construct and purified by anion exchange chromatography onto a POROS-HQ column. NCPs were assembled with a ratio 1.1:1 (1.1 octamer:1 DNA) by successive steps of salt dialysis against TEN buffer (0–2 M NaCl, 10 mM Tris, pH 7.5, 1 mM ethylenediaminetetraacetic acid, 1 mM Dithiothreitol (DTT)). NCPs were kept at −80°C in 0 mM NaCl TEN buffer.
Quantitative interaction experiments were performed by biolayer interferometry (BLI), using a BLItz instrument (Octet® N1; Sartorius). Two different runs were performed: the first one, into water, to coat biosensors with biotinylated peptides (Table 1) and the second, into Blitz buffer [1× phosphate buffer saline, pH 7.4, 0.02% (v/v) Tween 20, 0.1% (w/v) BSA], to fix NCPs on immobilized peptides. All steps were performed under 2200 rpm shaking speed. Streptavidin biosensors (Octet®SA Biosensors; Reference 18-0009; Sartorius) were first pre-wet for at least 10 min with water. The baseline, with only water, was measured for 60 s. Ten micromolar Gag CBS biotinylated peptides (or H4 biotinylated peptides), diluted in water, were loaded onto the biosensors, for 180 s, to reach a binding of ∼1.5 nm, followed by a dissociation step of 180 s. Following the first run, coated biosensors were equilibrated for at least 10 min in Blitz buffer. The second run started with 60 s of baseline, followed by the association step, where biosensors were dipped into serial dilutions of NCPs (10, 25, 50, or 100 nM), for 300 s. […] For each time point measured, data of this second control (binding of Blitz buffer on biosensors loaded with biotinylated Gag WT peptide) were subtracted to every condition and were plotted on curves, using Prism 9 software.
The target in test [4] is Gag Y537Q biotinylated peptide (PFV Gag CBS Y537Q) (prototype foamy virus (PFV)). Briefly: BLI; biotinylated Gag CBS peptides on streptavidin biosensors; NCP 10, 25, 50 or 100 nM in solution; 1× PBS pH 7.4, 0.02% Tween 20, 0.1% BSA; BLItz instrument.

* marks the point of attachment. Biotin = O=C1N[C@H]2[C@H](CS[C@H]2CCCCC(=O)*)N1

For the substance “Biotin-GGQNLRPRTYQPQRYG-OH [Y537Q CBS peptide, Biotinylated PFV Gag CBS peptide with Tyr537Gln substitution]”, the pull-down of nucleosomes entry in the test on recombinant NCPs [1] is given as “affected nucleosome interaction, though largely in a salt-independent manner”. Besides, the “binding to NCP saturated with WT H4 tail” value in test [2] is reported as “unable to effectively compete”. Moreover, the “binding to NCP saturated with H4 mut tail” value in test [2] (100 nM NCP pre-incubated with 100 μM H4 mut peptide at least 30 min at room temperature) is recorded as “unable to effectively compete”.

With “Biotin-SGRGKGGKGLGKGGAKRHAAVLA-OH [H4 mut, reference compound]”, in the test on recombinant NCPs [3] (BLI, immobilized H4 peptide, Supplementary Fig. S7), the “binding of H4 tail peptide to purified NCPs” value is “retains some residual binding”.

In the case of “Recombinant nucleosome core particle (human histone octamer on Widom-601 DNA) (from UniProt P04908 1-130; P06899 1-126; P68431 1-136; P62805 1-103) (complex)”, the fold reduction of the BLI interaction against the WT CBS peptide in test [4] was 5 fold.

As for “Biotin-GGYNLQPRTYQPQRYG-OH [R540Q CBS peptide, Biotinylated PFV Gag CBS peptide with Arg540Gln substitution]”, the “pull-down of nucleosomes, physiological salt” value in the test on recombinant NCPs [1] (125–150 mM NaCl) was “virtually eliminated binding”. The “pull-down of nucleosomes, hypotonic conditions” value in the test on recombinant NCPs [1] (low salt (below 125 mM NaCl)) is “reduced binding”. Further, the “BLI interaction with nucleosomes” value in the test on recombinant NCPs [3] is listed as “almost complete reduction”. In test [2], the “binding to NCP saturated with WT H4 tail” value is reported as “no interaction with the NCP”.

Turning to “Biotin-GGYNLRPRTYQPQRYG-OH [WT CBS peptide]”, the pull-down of nucleosomes entry with recombinant NCPs [1] is given as “efficiently pulled down nucleosomes across tested salt concentrations”. Also, the “BLI interaction with nucleosomes” value in the test with recombinant NCPs [3] was “strongest BLI interaction”. Further, the “binding to NCP saturated with WT H4 tail” value in test [2] was “reached the same level as without H4 tails”.

Source of the values: article PMC12125541, “Timed chromatin invasion during mitosis governs prototype foamy virus integration site selection and infectivity” (Nucleic Acids Research, 2025).
